Source: patent US20100249402A1, “NOVEL BENZAMIDINE DERIVATIVES, PROCESS FOR THE PREPARATION THEREOF AND PHARMACEUTICAL COMPOSITION FOR PREVENTING OR TREATING OSTEPOROSIS COMPRISING THE SAME” (DONG WHA PHARMACEUTICAL CO. LTD., priority 2007, published 2010)
Read-outs that look alike come from different tables or passages of the source.

Tests used:
calvaria = experiment: Cytotoxicity test (MTT), calvaria; assay type: cell-based; details: 10^−6 M, cultured for 72 hrs, in comparison with the control group
Method: (§1) The cytotoxic effect of the benzamidine derivative of the present invention was evaluated by carrying out the experiment described below.
(§2) The test substance was diluted in an appropriate solvent at a concentration of 10^−2 M. This substance was diluted in an appropriate culture medium for the cells used in the cytotoxicity test to a concentration of 10^−6M, and loaded into a 96-well plate in 100 μl per well. The cell lines to be used in the cytotoxicity test were plated on a 96-well plate in a dose of 1.0×10^4 cell/100 μl per well, and cultured for 72 hrs. 25 μl of MTT[3-(4,5-dimethyl-2-thiazolyl)-2,5-diphenyl-2H-tetrazolium bromide] dissolved in PBS (2 mg/mL) were added before 4 hrs of the end of culture. After completion of the reaction, the plates were centrifuged, the medium was discarded and 100 μl of DMSO was added to dissolve formazan. Finally, the absorbance of the developed plates was measured at 540 nm. The survival rates of the cells were expressed as % concentration values in comparison with the control group.

MC3T3-E1 = experiment: Cytotoxicity test (MTT), MC3T3-E1; assay type: cell-based; details: 10^−6 M, cultured for 72 hrs, in comparison with the control group
Method: as §1, §2

[1] = test system: osteoclast differentiation; experiment: Inhibitory effects on osteoclast differentiation (bone marrow cell/osteoblast co-culture, TRAP staining); assay type: cell-based, mice; details: Mus musculus, Osteoclast, 168 h, read-out: Inhibition of osteoclast differentiation (%)
Method: The effect of the benzamidine derivative of the present invention on osteoclast formation and differentiation process was evaluated via co-culture with an osteoblast.
Tibia was aseptically ectomized from 6 to 8-week-old male ddY mice to harvest bone marrow cells by using a syringe (21G, Korea Green Cross). The bone marrow cells were suspended in 5 mL of an α-MEM medium (Gibco BRL Co., supplemented with sodium bicarbonate (2.0 g/L), streptomycin (100 mg/L) and penicillin ([…]), filtered and then sterilized). The harvested cells were centrifuged at 600×g for 5 minutes to collect the whole quantity. To remove the red blood cells in the bone marrow cells, 3 mL of Tris HCl (0.83% NH4Cl, pH 7.5) was added and well mixed. After centrifugation, the numbers of the eukaryotic cells in the harvested bone marrow cells were counted, and then immediately used for a co-culture system.
The progenitor bone and the parietal bone were aseptically ectomized from 1 to 2-day-old neonatal ICR mice, washed with a phosphate butter solution (PBS), and treated with a mixed enzyme solution (0.2% collagenase and 0.1% dispase) six to seven times (10, 10, 10, 20, 20 and 20 min), and then 3 to 6 groups of the cells, in which a large volume of cells having osteoblastic characteristics were contained, were intensively collected, and washed with medium (serum-free α-MEM). The washed cells were cultured in the α-MEM medium containing 10% FBS for 2 to 3 days. After sub-culturing, the collected cells were used for this experiment, and diluted to a concentration of 1×10^6 cells/mL for storage at −70° C.
The benzamidine derivative of the present invention was dissolved in a sterile distilled water or ethanol to be diluted to a desired concentration. The final volume of the sample added to the cell culture medium was set at a ratio of 1:1000.
The bone marrow cells prepared in the above 1-1 and the osteoblast were co-cultured. Both the bone marrow cells (25,000 cells/cm^2) and the osteoblast (10,000 cells/cm^2) were plated in a 96-well plate using α-MEM medium containing FBS, and then cultured with the samples to be tested for 7 days. Differentiation factors, such as dexamethasone (10^−7 M) and vitamin D (10^−8 M), were also co-added to the medium from the first day of cultivation. The medium was changed with a fresh media containing a mixture of the samples and the differentiation factors every 2 to 3 days.
TRAP was used as a marker to measure the matured osteoclast in consideration of its characteristics showing a positive reaction to a TRAP staining solution.
The TRAP staining solution was prepared in such the manner that 5 mg of naphthol AS-MS phosphate (sigma N-4875) as a substrate and 25 mg of a coloring agent (Fast Red Violet LB salt) were dissolved in N,N-dimethylformamide (about 0.5 mL). 50 ml of a 0.1 N […] buffer solution containing 50 mM tartaric acid (pH 5.0) was added thereto, and the mixture was stored in a refrigerator prior to use as a staining solution.
After culturing the cells for 7 days, the medium was removed from the wells, the cells were once washed with PBS, and then fixed with PBS containing 10% formalin for 2 to 5 min. The cells were fixed again in a mixed solution of ethanol and acetone (1/1) for about 1 min, and dried off. The cells were further treated by the TRAP staining solution for 15 minutes, and washed with water and dried off. The osteoclasts with 3 or more nuclei showing a TRAP-positive reaction were counted under a microscopic examination. Each of tests was confirmed at least three times. The inhibitory effect on osteoclast differentiation of each experimental group, relative to negative controls, was expressed as a percentage (%).

HOS = experiment: Cytotoxicity test (MTT), HOS; assay type: cell-based; details: 10^−6 M, cultured for 72 hrs, in comparison with the control group
Method: as §1, §2

[2] = 1 μm, 7 days co-culture, TRAP-positive osteoclasts with 3 or more nuclei, relative to negative controls

Row | Compound | Cell survival rate (calvaria) | Cell survival rate (MC3T3-E1) | inhibition at 1 µM [1, 2] | Cell survival rate (HOS) | inhibition at 1 µM [1]
1 | CNc1nc(-c2ccc(OCCCCCOc3ccc(C(=N)NO)cc3)cc2)c(N2CCOCC2)s1 [Example 23, N-hydroxy-4-{5-[4-(2-methylamino-5-morpholin-4-yl-thiazol-4-yl)-phenoxy]-pentyloxy}-benzamidine] | 95.8% | 92.0% | 58.9% | 104.0% | 
2 | N=C(NO)c1ccc(OCCCCCOc2ccc(-c3nc(N4CCOCC4)sc3CN3CCOCC3)cc2)cc1 [Example 51, N-hydroxy-4-{5-[4-(2-morpholin-4-yl-5-morpholin-4-ylmethyl-thiazol-4-yl)-phenoxy]-pentyloxy}-benzamidine] | 102% | 88% | 95% | 91% | 
3 | N=C(NO)c1ccc(OCCCCCOc2ccc(-c3nc(N4CCOCC4)sc3N3CCSCC3)cc2)cc1 [Example 6, N-hydroxy-4-{5-[4-(2-morpholin-4-yl-5-thiomorpholin-4-yl-thiazol-4-yl)-phenoxy]-pentyloxy}-benzamidine] | 106% | 90% |  | 92% | 92%
4 | CN1CCN(c2sc(N3CCOCC3)nc2-c2ccc(OCCCCCOc3ccc(C(=N)NO)cc3)cc2)CC1 [Example 4, N-hydroxy-4-(5-{4-[5-(4-methyl-piperazin-1-yl)-2-morpholin-4-yl-thiazol-4-yl]-phenoxy}-pentyloxy)-benzamidine] | 93% | 89% |  | 104% | 100%
5 | Cc1nc(-c2ccc(OCCCCCOc3ccc(C(=N)NO)cc3)cc2)c(NC(=O)c2ccncc2)s1 [Example 38, N-hydroxy-4-[5-(4-{2-methyl-5-[(pyridine-4-carbonyl)-amino]-thiazol-4-yl}-phenoxy)-pentyloxy]-benzamidine] | 94.6% | 100.0% | 78.6% | 117.6% | 
6 | CN(CCN1CCOCC1)c1nc(-c2ccc(OCCCCCOc3ccc(C(=N)NO)cc3)cc2)c(CN2CCSCC2)s1 [Example 29, N-hydroxy-4-[5-(4-{2-[methyl-(2-morpholin-4-yl-ethyl)-amino]-5-thiomorpholin-4-ylmethyl-thiazol-4-yl}-phenoxy)-pentyloxy]-benzamidine] | 99% | 109% |  | 109% | 97%
7 | CCCNCc1sc(C)nc1-c1ccc(OCCCCCOc2ccc(C(=N)NO)cc2)cc1 [Example 16, N-hydroxy-4-{5-[4-(2-methyl-5-propylaminomethyl-thiazol-4-yl)-phenoxy]-pentyloxy}-benzamidine] | 95% | 92% |  | 100% | 100%
8 | Cc1nc(-c2ccc(OCCCCCOc3ccc(C(=N)NO)cc3)cc2)c(N2CCN(C)CC2)s1 [Example 2, N-hydroxy-4-(5-{4-[2-methyl-5-(4-methyl-piperazin-1-yl)-thiazol-4-yl]-phenoxy}-pentyloxy)-benzamidine] | 87.9% | 91.8% | 78.6% | 107.0% | 
